Experimental data reported in patent US20150038417A1, “GLP-1 Agonists” (Novo Nordisk A/S, priority 2011, published 2015).

Tested on: Normal male Sprague Dawley rats
Assay: Effect of liraglutide on alcohol consumption (two-bottle choice: water vs 10% alcoholic drink)
Assay type: in vivo, rat
Description: Certain strains of rats are alcohol dependent and consume large amounts of alcohol if given the choice.
Normal male Sprague Dawley rats were housed individually and fed normal rat chow. Each rat had access to two drinking bottles, one of them containing water and one of them containing a 10% alcoholic drink (diluted Toffee liquor from ALDI®). The rats were acclimatised to the alcoholic drink for a least one week. Consumption of water and the alcoholic drink were continuously recorded on line using the BIOdaq food and water intake monitoring system http://www.bodaq.com/®.
Basal water and alcoholic drink consumption was recorded on a 24 h daily basis. After this had stabilised, consumption of water and alcoholic drink was recorded over a 24 h period. […] Water and alcohol consumption were recorded for 24 h after injection.

Liraglutide (HAEGTFTSDVSSYLEGQAAKEFIAWLVRGRG; chains of the INN, looked up)
Accumulated fluid intake over 24 h, alcohol (10% alcoholic drink), after Liraglutide (Mean ± SEM) (30 μg/kg liraglutide s.c., single dose, 24 h after injection, n=8, same group before dosing 25.6 ± 0.6 g, p < 0.001, paired t-test): 16.1 ± 1.3 g
Effect on 24 h intake of alcoholic drink and water (in words) (30 μg/kg liraglutide s.c., before vs after administration): significantly and selectively reduced intake of alcoholic drink and not water
Alcohol intake compared with vehicle treated rats (in words) (rats offered to choose between alcohol and water): significantly reduces the alcohol intake
